Results as given in ChEMBL document CHEMBL1154395, “Modulations of the amide function of the preferential dopamine D3 agonist (R,R)-S32504: improvements of affinity and selectivity for D3 versus D2 receptors” (Bioorg Med Chem Lett, 2009).

Experiments:
[1] = target: T1, D(3) dopamine receptor (Homo sapiens, UniProt P35462); experiment: Displacement of [3H]spiperone form human cloned dopamine D3 receptor expressed in CHO cells; type: cell-based
[2] = target: D(2) dopamine receptor (Homo sapiens, UniProt P14416); experiment: Displacement of [3H]spiperone form human cloned dopamine D2L receptor expressed in CHO cells; type: cell-based
[3] = species: Homo sapiens; experiment: Selectivity ratio of Ki for human dopamine D2 receptor to Ki for human dopamine D3 receptor
[4] = target: T1, D(3) dopamine receptor; experiment: Activation of human dopamine D3 receptor expressed in CHO cells assessed as [35S]GTPgammaS binding by scintillation proximity assay; type: functional, cell-based

Chain of D(2) dopamine receptor (P14416 whole entry): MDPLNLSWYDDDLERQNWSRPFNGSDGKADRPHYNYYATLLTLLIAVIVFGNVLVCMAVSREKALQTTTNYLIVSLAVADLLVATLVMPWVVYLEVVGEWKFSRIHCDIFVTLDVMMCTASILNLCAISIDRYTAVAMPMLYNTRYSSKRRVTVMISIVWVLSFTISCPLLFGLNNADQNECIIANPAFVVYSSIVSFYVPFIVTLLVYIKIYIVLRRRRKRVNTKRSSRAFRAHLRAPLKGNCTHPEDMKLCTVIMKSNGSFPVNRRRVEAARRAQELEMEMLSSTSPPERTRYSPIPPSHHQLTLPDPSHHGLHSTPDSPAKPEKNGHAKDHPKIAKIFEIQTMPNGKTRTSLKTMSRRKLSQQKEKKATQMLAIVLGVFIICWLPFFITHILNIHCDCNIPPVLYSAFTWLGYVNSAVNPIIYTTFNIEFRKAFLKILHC
T1 sequence (P35462 whole entry): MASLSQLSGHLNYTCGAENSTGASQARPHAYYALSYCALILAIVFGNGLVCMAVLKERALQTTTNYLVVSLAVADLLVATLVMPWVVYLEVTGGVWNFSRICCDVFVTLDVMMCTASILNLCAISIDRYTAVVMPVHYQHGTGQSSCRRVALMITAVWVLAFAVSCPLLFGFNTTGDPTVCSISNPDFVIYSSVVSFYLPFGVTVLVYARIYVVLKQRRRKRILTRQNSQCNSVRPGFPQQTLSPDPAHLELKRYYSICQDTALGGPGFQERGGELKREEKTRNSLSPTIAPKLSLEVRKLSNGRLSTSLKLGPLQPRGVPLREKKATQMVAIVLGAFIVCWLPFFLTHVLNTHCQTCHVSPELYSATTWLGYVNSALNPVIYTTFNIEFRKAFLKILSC

For `CCCN1CCO[C@@H]2c3cc4c(cc3CC[C@H]21)CN(C)C4=O`, the Ki [1] was 2.19 µM and the Ki [2] was > 10 µM.
For `CCCN1CCO[C@@H]2c3cc(C(=O)OCC)ccc3CC[C@H]21`, the Ki [1] was 2.63 µM.
`CCCN1CCO[C@@H]2c3cc(C(=O)N(C)C)ccc3CC[C@H]21` was tested, and the Ki [1] was > 10 µM and the Ki [2] was 1.86 µM.
For `CCCN(CCC)CCc1cccc2c1CC(=O)N2` [ROPINIROLE], the Ki [2] was 0.692 µM.
`CCCN1CCO[C@@H]2c3cc(C(C)=O)ccc3CC[C@H]21` gave a Ki [1] of 0.0955 µM, a Ratio Ki [3] of 32 and a Ki [2] of 3.09 µM.
`CCCN1CCO[C@@H]2c3cc(C(=O)Nc4ccc(OC)cc4)ccc3CC[C@H]21` was tested, and the Ki [1] was 2.75 µM and the Ki [2] was > 10 µM.
For `CCCCNC(=O)c1ccc2c(c1)[C@H]1OCCN(CCC)[C@@H]1CC2`, the Ki [1] was > 10 µM and the Ki [2] was 4.57 µM.
`CCCN1CCO[C@@H]2c3cc(C(=O)OC)ccc3CC[C@H]21` was tested, and the Ki [1] was > 10 µM and the Ki [2] was > 1 µM.
Work on `CCCN1CCO[C@@H]2c3cc4c(=O)[nH]ccc4cc3CC[C@H]21` yielded a Ki [2] of 1.2 µM.
`CCCN1CCOC2c3cc(C(N)=O)ccc3CCC21` (racemic) was tested, and the Ki [1] was 0.0195 µM, the Ratio Ki [3] was 40 and the Ki [2] was 0.759 µM.
`CCCN1CCO[C@H]2c3cc(C(N)=O)ccc3CC[C@@H]21` was tested, and the Ki [1] was 2.45 µM and the Ki [2] was > 10 µM.
For `CCCN1CCO[C@@H]2c3cc(C#N)ccc3CC[C@H]21`, the Ki [1] was 0.0398 µM, the Ratio Ki [3] was 20 and the Ki [2] was 0.794 µM.
In the case of `CCCN1CCO[C@@H]2c3cc(C(=O)O)ccc3CC[C@H]21`, the Ki [1] is reported as 3.31 µM and the Ki [2] is reported as > 10 µM.
`CCCN1CCO[C@@H]2c3cc4c(cc3CC[C@H]21)COC4=O` showed a Ki [2] of 2.04 µM.
With `CCCN1CCO[C@@H]2c3cc(C(N)=O)ccc3CC[C@H]21` the Ki [1] was 0.0148 µM, the Ratio Ki [3] was 80 and the EC50 [4] was 0.00229 µM. For the same compound, the Ki [2] was 1.2 µM.
`CCCN1CCO[C@@H]2c3cc(C(=O)NC)ccc3CC[C@H]21` was tested, and the Ki [1] was > 10 µM and the Ki [2] was 7.94 µM.
For `CCCN1CCO[C@@H]2c3cc(-c4nnn[nH]4)ccc3CC[C@H]21`, the Ki [1] was > 10 µM and the Ki [2] was > 10 µM.
`CCCN1CCO[C@@H]2c3cc4c(cc3CC[C@H]21)CCNC4=O` was tested, and the Ki [2] was 0.776 µM.
`CCCN1CCO[C@@H]2c3cc4c(cc3CC[C@H]21)CCOC4=O` gave a Ki [1] of 0.12 µM, a Ratio Ki [3] of 12.5 and a Ki [2] of 1.48 µM.
For `CCCN1CCO[C@@H]2c3cc(C(=O)NCc4ccc(OC)cc4)ccc3CC[C@H]21`, the Ki [1] was > 10 µM and the Ki [2] was 3.39 µM.
